Results on one substance are retold here after US12527753B2, “Cysteamine for the treatment, mitigation and prevention of coronaviral, e.g., SARS-CoV-2, infections” (The Regents of the University of Michigan, priority 2020, dated 2026).

This test deals with SARS-CoV-2 Variants Alpha, Beta, Gamma and Delta. Briefly: In vitro activity against SARS-CoV-2 variants (pooled statements).

For 2-aminoethanethiol [cysteamine], the “inactivation of the virus in tissue culture” value (10 mM solution, contingent on time of exposure and concentration) is 85-100%. Also, the “inactivation of the variants” value (10 mM, 15-90 minutes exposure) is “near complete inactivation”.
